We go through nine compounds from US9770421B2, “Uses for idebenone and related benzoquinones in metabolic disorders and other PPAR α/γ related diseases and conditions” (INDANIO BIOSCIENCE INC., priority 2013, dated 2017).

“Also recorded” adds a separate entry of the source.

One assay concerns C57Bl/6 db/db mice. Kind of assay: db/db mouse study (NAFLD features). The class given is in vivo. The conditions noted are these: 10 mpk in food, 3 weeks, versus vehicle. The procedure: Db/db study: Forty male C57Bl/6 db/db mice (called B6.BKS(D)-Lepr db/J) were ordered from Jackson Laboratories (#000697) at 7 weeks of age. Mice were housed individually with free access to food (2016 Teklad Global 16% Protein Rodent Diet) and water on a 14 hour light/dark cycle (6 a.m. to 8 p.m. light). […] Food was exchanged on a daily bases. Harlan corn cob bedding was provided and was changed every week or as needed. Following a 1 week acclimation, 32 mice were chosen based on desired body weight range. Remaining mice were euthanized. Mice were randomized by body weight into four treatment groups (n=8) by body weight. Dosing occurred for 21 days. Mice were euthanized by CO2 euthanasia and livers were fixed in neutral buffered formalin (NBF) for 24 h, followed by a one day fixation in 30% Sucrose and 10% Sucrose. Oil O Red staining was performed through the Pathology Research Program at the University Health Network in Toronto [46]. [table] 100 mg of db/db livers were homogenized in RIPA buffer and protein concentration was quantified using a BCA protein assay kit (Cell signalling #7780) followed by measurement of ‘Thiobarbituric Acid Reactive Substances’ (TBARS) using a TBARS assay kit (Cayman Chemicals #10009055). Total RNA was extracted from 100 mg of db/db livers using RNA STAT-60 (Tel-Test, Inc.), treated with DNase I (RNase-free, Roche), and reverse transcribed into cDNA with random hexamers using the High Capacity Reverse transcription system (Applied Biosystems, ABI). Primers used are shown below and were validated as previously described. Real-time QPCR reactions were performed on an ABI 7900 in 384-well plates containing 12.5 ng cDNA, 150 nM of each primer, and 5 μl 2×SYBR Green PCR Master Mix (ABI) in a 10 μl total volume. Relative mRNA levels were calculated using the comparative Ct method normalized to cyclophilin mRNA.

The next assay addresses T1, hPPARδ/β (Homo sapiens, UniProt Q03181).
T1 sequence (Q03181 143-441): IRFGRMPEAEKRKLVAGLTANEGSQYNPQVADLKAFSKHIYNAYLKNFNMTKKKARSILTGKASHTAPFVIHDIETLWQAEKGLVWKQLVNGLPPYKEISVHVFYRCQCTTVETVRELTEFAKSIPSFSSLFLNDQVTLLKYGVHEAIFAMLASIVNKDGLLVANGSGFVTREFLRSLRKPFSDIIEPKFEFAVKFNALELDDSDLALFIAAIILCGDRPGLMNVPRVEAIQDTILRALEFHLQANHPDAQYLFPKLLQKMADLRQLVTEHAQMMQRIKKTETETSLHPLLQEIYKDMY
In words: HEK293 cell culture luciferase reporter assay, hPPARδ/β. The conditions noted are these: read-out: EC50 hPPARδ/β; HEK293, GAL4-hPPARδ/β LBD, luciferase.

The target in another assay is T2, hPPARγ (Homo sapiens, UniProt P37231).
T2 sequence (P37231 188-477 isoform P37231-2): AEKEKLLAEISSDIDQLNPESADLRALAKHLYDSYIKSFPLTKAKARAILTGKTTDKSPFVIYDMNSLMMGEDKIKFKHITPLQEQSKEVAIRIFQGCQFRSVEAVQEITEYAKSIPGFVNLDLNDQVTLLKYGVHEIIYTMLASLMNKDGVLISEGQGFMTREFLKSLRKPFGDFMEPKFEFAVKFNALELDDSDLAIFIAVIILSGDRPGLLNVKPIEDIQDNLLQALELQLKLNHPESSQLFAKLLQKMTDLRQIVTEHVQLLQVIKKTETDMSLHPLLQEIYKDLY
Kind of assay: PPARγ ligand trap (LT) zebrafish GFP reporter screen/assay. The class given is in vivo. The arrangement: pLT PPARα (aa 178-468) and pLT PPAR γ (aa 188-477) lines; expressed in transfected cells; host or cells: transgenic zebrafish embryos (heat-induced ligand-trap line). The settings on record: transgenic embryos, 48 hpf images. The method, then:
Digested DNA was adjusted with 0.1% phenol red. 4.6 nl of DNA solution was injected into the blastomeres of early one-cell stage embryos.
(§1) F0 fish were crossed with WT fish to identify germ-line transformed animals, as determined by agonist treatments and GFP expression. F1 progeny showing strong and consistent GFP responses were selected for F2 homozygote production. To avoid reporter GFP silencing of stable transgenic LT lines, homozygous fish showing strong and consistent GFP responses were selected for continued propagation of next generations.
PPARγ ligand trap zebrafish screens were performed under optimized conditions in 96-well format using the ImageXpress Velos Laser Scanning Cytometer. 1 or 2 dpf embryos were heat induced (28→37° C.) for 30 minutes, de-chorionated and then arrayed in 96-well plates (5 per well). Embryo water (0.075 g/L NaHCO3, 0.018 g/L Sea salt, 0.0084 g/L CaSO42H2O) was removed and 200 μl of fresh embryo water/well including dissolved small molecules or solvent was added.
Also included was the CoQ10 analog idebenone.

A further assay addresses T3, PPARα (Homo sapiens, UniProt Q07869).
T3 sequence (Q07869 178-468): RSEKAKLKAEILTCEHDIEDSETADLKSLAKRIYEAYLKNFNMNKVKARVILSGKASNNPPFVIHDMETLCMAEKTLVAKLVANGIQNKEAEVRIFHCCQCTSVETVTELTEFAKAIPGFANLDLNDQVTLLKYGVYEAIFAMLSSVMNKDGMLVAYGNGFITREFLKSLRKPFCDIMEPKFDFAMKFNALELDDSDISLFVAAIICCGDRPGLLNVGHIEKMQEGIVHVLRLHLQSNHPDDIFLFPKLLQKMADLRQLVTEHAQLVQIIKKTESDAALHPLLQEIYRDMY
In words: PPARα ligand trap zebrafish GFP reporter assay. The arrangement: pLT PPARα (aa 178-468) and pLT PPAR γ (aa 188-477) lines; expressed in transfected cells; host or cells: transgenic zebrafish embryos (ligand-trap line). The class given is in vivo. The settings on record: transgenic embryos, 48 hpf. The procedure:
Zebrafish were maintained at 28.5° C. on a 14/10 hour light/dark cycle and staged according to hours (h) or days (d) postfertilization. To generate pLT PPARα (aa 178-468) and pLT PPAR γ (aa 188-477) lines, plasmids were pre-digested with I-SceI (0.8 μg DNA, 1 μl I-SceI (New England Biolabs) 2 μl 10×I-SceI buffer, 1 μl BSA) for 20 min at 37° C. Digested DNA was adjusted with 0.1% phenol red. 4.6 nl of DNA solution was injected into the blastomeres of early one-cell stage embryos.
as §1
PPARγ ligand trap zebrafish screens were performed under optimized conditions in 96-well format using the ImageXpress Velos Laser Scanning Cytometer. 1 or 2 dpf embryos were heat induced (28→37° C.) for 30 minutes, de-chorionated and then arrayed in 96-well plates (5 per well). […] Embryos were incubated at 28° C. for 14 h, anesthetized with Tricaine (Sigma, Cat. # A-5040) and then analyzed for GFP fluorescence using the ImageXpress Velos Laser Scanning Cytometer.
For orientation: In a reporter assay the amount or activity of a reporter protein is the signal.

For the next assay, the target named is T4, PPARδ/β (Homo sapiens, UniProt Q03181).
T4 construct: expressed in transfected cells; host or cells: transgenic zebrafish embryos (ligand-trap line)
T4 sequence (Q03181 211-439 limits assumed): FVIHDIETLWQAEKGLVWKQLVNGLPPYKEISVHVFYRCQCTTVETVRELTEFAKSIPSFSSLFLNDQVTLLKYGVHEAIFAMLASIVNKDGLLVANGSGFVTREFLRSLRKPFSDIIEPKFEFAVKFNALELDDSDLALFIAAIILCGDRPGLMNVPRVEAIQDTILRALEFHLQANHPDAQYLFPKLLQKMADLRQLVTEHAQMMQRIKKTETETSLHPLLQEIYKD
In words: PPARδ/β ligand trap transgenic zebrafish line. The conditions noted are these: in vivo. The procedure:
To test for specificity, idebenone and CoQ10 were also tested on PPARα, and PPARδ/β receptors in vivo and in vitro. […] The same relative responses were obtained with HEK 293 cells grown in culture and transfected with PPAR expression vectors and luciferase reporters (FIG. 5).

In assay [1] the test system is GFP-expressing leukocytes recruited in response to CuSO4. In words: Zebrafish inflammation assay (CuSO4). The class given is in vivo. The settings on record: 10 μM CuSO4, 55 hpf embryos. The method, then: Assay was performed as described in [47]. Fifteen dechorionated 55 hpf (hours post fertilization) embryos were transferred in each well of 6-well plates in 6 ml of embryo water. Idebenone was added at increasing concentrations (0.25, 0.75, 1.5, 3 and 5 μM). Embryos were incubated in the dark for 1 hr at 28 C, followed by a second 40 min incubation with copper sulfate (CuSO4) at a final concentration of 10 μM at 28 C in the dark. Embryos were then transferred to Eppendorf tubes and fixed in 4% paraformaldehyde in 1×PBS overnight at 4 C in the dark. Numbers of GFP+ cells were counted along the lateral line/neuromast clusters.
Previous studies have shown that PPAR agonists have anti-inflammatory properties, and can be used to treat a variety of inflammatory responses. To test if this is also true for idebenone, we used a zebrafish model of inflammation. Exposure of fish larvae to copper sulfate causes non-invasive damage to neuromast cells, which form external clusters along the lateral midline. This inflammation can be visualized via the recruitment of GFP-expressing leukocytes. As expected, this recruitment of GFP positive cells could be alleviated by addition of the known anti-inflammatory agent ibuprofen (FIG. 11).

The target of assay [2] is T5, human PPARγ LBD (residues 206-477) (Homo sapiens, UniProt P37231).
T5 construct: human PPARγ LBD (residues 206-477), expressed in pRSET; His tag (implied by Ni-NTA purification and the pRSET vector); made in house; host or cells: E. coli BL21 codon plus (pRSET)
T5 sequence (P37231 206-477 isoform P37231-2): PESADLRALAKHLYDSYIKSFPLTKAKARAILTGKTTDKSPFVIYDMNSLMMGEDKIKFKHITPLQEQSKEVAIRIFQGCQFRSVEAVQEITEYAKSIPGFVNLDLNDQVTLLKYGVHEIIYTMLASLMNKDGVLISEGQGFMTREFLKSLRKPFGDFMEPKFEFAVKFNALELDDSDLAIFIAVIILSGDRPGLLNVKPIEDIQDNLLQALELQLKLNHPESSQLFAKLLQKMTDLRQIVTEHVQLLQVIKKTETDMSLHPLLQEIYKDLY
In words: Stargazer thermostabilization assay. The class given is binding. The conditions noted are these: 0.2 mg/ml PPARγ LBD, heated to 80° C.

For `CN(CCOc1ccc(CC2SC(=O)NC2=O)cc1)c1ccccn1` (stereo not shown) [rosiglitazone], the “Gain in liver weight” value with C57Bl/6 db/db mice is given as 8.6%.
With `O=C(O)COc1ccc(SCC=C(c2ccc(Br)cc2)c2ccc(Br)cc2)cc1Cl` [CAY10592], the EC50 on hPPARδ/β is 12.8 nM.
On to `COC1=C(OC)C(=O)C(C/C=C(\C)CC/C=C(\C)CC/C=C(\C)CC/C=C(\C)CC/C=C(\C)CC/C=C(\C)CC/C=C(\C)CC/C=C(\C)CC/C=C(\C)CCC=C(C)C)=C(C)C1=O` [CoQ10, coenzyme Q10], for which, on hPPARγ, the “GFP reporter activation in LT-PPARγ embryos” value (shortened to “GFP reporter activation”) was “dual agonists for PPARα and PPARγ”. Further, the “GFP response of PPARα LT line” value on PPARα is “robust response; also recorded: dual agonists for PPARα and PPARγ”. Moreover, at PPARδ/β, the “Response of PPARδ/β transgenic line” value is “no response”.
With `COC1=C(OC)C(=O)C(CC=C(C)C)=C(C)C1=O` [CoQ1, coenzyme Q1], the “GFP reporter activation” value on hPPARγ is “relatively weak activity; also recorded: weak PPARγ activation”.
For the compound `O=C1C=CC(=O)C=C1` [1,4-benzoquinone], the “GFP reporter activation” value on hPPARγ is “did not induce a detectable response”; at hPPARγ (listed as benzoquinone), “no reporter activation”.
On to `COC1=C(OC)C(=O)C(CCCCCCCCCC[P+](c2ccccc2)(c2ccccc2)c2ccccc2)=C(C)C1=O` [MitoQ, 10-[4,5-dimethoxy-2-methyl-3,6-dioxo-1,4-cycloheexadienl-yl]decyl triphenylphosphonium methanesulfonate], for which, at hPPARγ, the “GFP reporter activation” value is given as “failed to activate; also recorded: no activation”.
On to `CC(C)Cc1ccc(C(C)C(=O)O)cc1` (stereo not shown) [Ibuprofen], for which the “Recruitment of GFP positive leukocytes (anti-inflammatory activity)” value in assay [1] was “alleviated”.
For `COC1=C(OC)C(=O)C(C/C=C(\C)CCC=C(C)C)=C(C)C1=O` [CoQ2, coenzyme Q2], the “GFP reporter activation” value on hPPARγ is “activity similar to idebenone and CoQ10”.
As for `COC1=C(OC)C(=O)C(C)=CC1=O` [CoQ0, Coenzyme Q0], on hPPARγ, the “GFP reporter activation” value is listed as “relatively weak activity; also recorded: weak PPARγ activation”. The “Shift of thermal denaturation transition temperature” value in assay [2] came to 8.5 °C.
